Measurements from US11419902B2, “Compositions comprising bacterial strains” (4D Pharma Research Limited, priority 2018, dated 2022).

Experiments:
TJP1 and Occludin = experiment: Ex vivo gene expression in the gut of mice fed with MRx0029; conditions: colon region of the murine intestine
Procedure: The in vitro results were compared with data from the ex vivo parallel analysis on the gut of mice fed with MRx0029. Gene expression of TJP1 and Occludin was quantified in the colon and ileum. […] Animals were allowed to habituate to their holding room for one week after arrival into the animal unit. They receive oral gavage (200 μL dose) of live biotherapeutics at a dose of 1×10^9 CFU for 6 consecutive days between 15:00 and 17:00. On day 7, the animals are decapitated, and tissues are harvested for experimentation. Animals were sacrificed in a random fashion regarding treatment and testing condition; sampling occurred between 9.00 a.m. and 2:30 p.m. Trunk blood was collected in potassium EDTA (Ethylene Diamine Tetra Acetic Acid) tubes and spun for 15 min at 4000 g. Plasma was isolated and stored at −80° C. for further analysis. The brain was quickly excised, dissected and each brain region was snap-frozen on dry ice and stored at −80° C. for further analysis. Spleen was removed, collected in 5 mL RPMI media (with L-glutamine and sodium bicarbonate, R8758 Sigma+10% FBS (F7524, Sigma)+1% Pen/Strep (P4333, Sigma)) and processed immediately after culls for ex-vivo immune stimulation. […]

HDAC = HDAC inhibition on whole HT-29 cells; format: cell-based
Procedure: Pure cultures of bacteria were grown anaerobically in YCFA+ broth until they reached their stationary growth phase. Cultures were centrifuged at 5,000×g for 5 minutes and the cell-free supernatant (CFS) was filtered using a […] (Millipore, UK). 1 mL aliquots of the CFS were stored at −80° C. until use. Sodium butyrate, hexanoic and valeric acid were obtained from Sigma Aldrich (UK) and suspensions were prepared in YCFA+ broth.
To investigate which metabolites were responsible for the strain-induced HDAC inhibition, different concentrations of hexanoic acid, valeric acid and sodium butyrate were measured for their HDAC inhibition on whole HT-29 cells and on HT-29 cell lysate.

SH-SY5Y cells = format: cell-based
Procedure: SH-SY5Y cells were plated at a seeding density of 10,000 cells/well, 24 hrs later cells were treated in 100 ul of 1% FBS growth media with different concentrations (express as percentage v/v) of cell-free bacterial supernatants from stationary phase cultures for 22 h. Thereafter 10 μl of MTT solution was added and cells were incubated in CO2 incubator for 4 h, at the end of this time 100 μl of isopropanol with 0.04 HCL was added to each well. The absorbance was measured at 560 nm wavelength and a reference wavelength of 655 nm. MTT assay kit was purchased from Merck Millipore (Cat n. CT01).

[1] = tested on: ERK signalling (phosphorylated ERK1 and 2/total ERK); experiment: ERK signalling in HT29 cell line (Western blot); format: cell-based; conditions: HT29 (V600E oncogenic mutation)
Procedure: Following 24 h treatment with the appropriate drugs either in presence of 10% bacterial supernatant or absence (YCFA+), protein extracts were obtained by lysing cells in RIPA buffer (R0278; Sigma Aldrich) supplemented with protease inhibitors (cOmplete Protease Inhibitor Cocktail Tablets; Roche, Switzerland) and 1 mM/L sodium orthovanadate, 0.5 mM/L PMSF. Protein quantification was done by the BCA protein assay. Equal amounts of total protein (20 μg/lane) were then separated by SDS-PAGE on 4-15% gradient gel (BioRad) and transferred to polyvinylidene difluoride (PVDF) membranes (Thermo Fisher Scientific, Loughborough). […]
Proteins of interest were detected with the appropriate HRP-conjugated secondary antibody (1:10,000, Thermo Fisher Scientific, Loughborough), developed with the ECL Western blotting Super Signal PicoPlus substrate (34577; Thermo Fisher Scientific, Loughborough), and visualised in Chemidoc XRS Imager (BioRad).
The effects of the following treatments were assessed on the HT29 colorectal cancer cell line (V600E oncogenic mutation in BRAF): (1) MRx0029; (2) Vemurafenib (VEMU) in YFCA+ medium; (3) VEMU and MRx0029; (4) Azacytidine-C (Aza-c) in YCFA+ medium; (5) Aza-c and MRx0029; (6) VEMU, Aza-c and MRx0029.

IL-8 = IL-8 secretion in HMC3 cells (ELISA); format: cell-based, Human; conditions: 10% cell-free supernatant 24 h, in the absence of stimulation (no TNF-α)
Procedure: Human microglia HMC3 cells were grown in glutamine-supplemented EMEM media containing 15% heat inactivated FBS and 100 U/ml penicillin and 100 μg/ml streptomycin. HMC3 cells were plated in 24 well plates at a density of 50,000 cells/well. Cells were left in CO2 incubator to rest for 48 h. The cells were then washed in blank EMEM and pre-treated in 2% FBS growth media with 10 ng/ml TNF-α for 1 h. Thereafter 10% cell-free bacterial supernatants for NCIMB 42787 stationary growth cultures (isolated as described above) were added to TNF-α-treated and untreated wells and incubated in CO2 incubator at 37° C. for 24 h. Cell-free supernatants were collected and centrifugated at 10,000×g for 3 min and 4° C. Samples were aliquoted in 1.5 ml microtubes and stored in −80° C. for hIL-8 ELISA.
Secretion of IL-8 was analysed using hIL-8 Standard ELISA Kits, according to the manufacturer's protocol in the cell-free supernatants from HMC3 cells treated as described above. Samples were measured at 405 nm with correction wavelength set at 655 nm on a microplate reader (iMark, Bio-Rad). Raw data were plotted and analysed using GraphPad Prism 7 software.

For Megasphaera massiliensis MRx0029, the “TJP1 gene expression in the colon” value (TJP1 and Occludin) was “significantly up-regulate”, the “HDAC inhibition on whole HT-29 cells” value (HDAC) was “strong HDAC inhibition” and the “reduction of cell viability” value (SH-SY5Y cells) was “approximately 70%”. The cell viability (SH-SY5Y cells; undifferentiated neuroblastoma cells, MRx0029 at 5% or 10%) was “significant, dose-dependent decrease in cell viability”, the ERK signalling [1] was “inhibiting ERK signalling” and the IL-8 secretion (IL-8) was “induces IL-8 secretion”.
